In US4973673A, “Serine analogs of BU-3608 antibiotics” (Bristol-Myers Company, priority 1988, dated 1990):
≈ marks a conversion by molar mass, not a printed value. Like-named read-outs stand apart in the source and are kept apart here.

Tests used:
[1] = test system: A. flavus FA21436; experiment: Serial agar dilution MIC, Sabouraud dextrose agar; format: cell-based; details: Aspergillus flavus, pH 7.0, 40 hours at 28° C.
Protocol: (§1) Antifungal activities of representative compounds of the present invention were evaluated both in vitro and in vivo. The minimum inhibitory concentrations (MICs) against various fungi were determined by serial agar dilution method using Sabouraud dextrose agar. Thus, approximately 0.003 ml of fungal suspension containing 10^6 cells/ml was applied to the surface of agar plates containing the test antibiotics.

[2] = test system: A. fumigatus IAM2034; experiment: Serial agar dilution MIC, Sabouraud dextrose agar; format: cell-based; details: Aspergillus fumigatus, pH 7.0, 40 hours at 28° C.
Protocol: as §1

[3] = test system: Aspergillus fumigatus IAM2530; experiment: Serial agar dilution MIC, Sabouraud dextrose agar; format: cell-based; details: pH 7.0, 40 hours at 28° C.
Protocol: as §1

[4] = test system: Blastomyces dermatitidis D40; experiment: Serial agar dilution MIC, Sabouraud dextrose agar; format: cell-based; details: pH 7.0, 40 hours at 28° C.
Protocol: as §1

[5] = test system: C. albicans A9540; experiment: Serial agar dilution MIC, Sabouraud dextrose agar; format: cell-based; details: Candida albicans, pH 7.0, 40 hours at 28° C.
Protocol: as §1

[6] = test system: C. neoformans IAM4514; experiment: Serial agar dilution MIC, Sabouraud dextrose agar; format: cell-based; details: Cryptococcus neoformans, pH 7.0, 40 hours at 28° C.
Protocol: as §1

[7] = test system: Candida albicans IAM4888; experiment: Serial agar dilution MIC, Sabouraud dextrose agar; format: cell-based; details: pH 7.0, 40 hours at 28° C.
Protocol: as §1

[8] = test system: Cryptococcus neoformans D49; experiment: Serial agar dilution MIC, Sabouraud dextrose agar; format: cell-based; details: pH 7.0, 40 hours at 28° C.
Protocol: as §1

[9] = test system: Fusarium moniliforme A2284; experiment: Serial agar dilution MIC, Sabouraud dextrose agar; format: cell-based; details: Fusarium verticillioides, pH 7.0, 40 hours at 28° C.
Protocol: as §1

[10] = test system: Mucor spinosus IFO5317; experiment: Serial agar dilution MIC, Sabouraud dextrose agar; format: cell-based; details: pH 7.0, 40 hours at 28° C.
Protocol: as §1

[11] = test system: Petriellidium boydii IFO8073; experiment: Serial agar dilution MIC, Sabouraud dextrose agar; format: cell-based; details: Scedosporium boydii, pH 7.0, 40 hours at 28° C.
Protocol: as §1

[12] = test system: Sporothrix schenckii IFO8158; experiment: Serial agar dilution MIC, Sabouraud dextrose agar; format: cell-based; details: pH 7.0, 40 hours at 28° C.
Protocol: as §1

[13] = test system: T. mentagrophytes #4329; experiment: Serial agar dilution MIC, Sabouraud dextrose agar; format: cell-based; details: Trichophyton mentagrophytes, pH 7.0, 40 hours at 28° C.
Protocol: as §1

[14] = test system: Trichophyton mentagrophytes D155; experiment: Serial agar dilution MIC, Sabouraud dextrose agar; format: cell-based; details: pH 7.0, 40 hours at 28° C.
Protocol: as §1

[15] = test system: C. albicans A9540; experiment: In vivo antifungal activity, intravenous infection in mice; set-up: species or system Male ICR mice; details: Candida albicans, 480 h, survival on 20th day, read-out: PD50 (50% protective dose)
Protocol: (§2) In vivo antifungal activities were evaluated against intravenous infections with Candida albicans A9540, Cryptococcus neoformans IAM4514 and Aspergillus fumigatus IAM2034 in mice. Candida albicans and Cryptococcus neoformans were cultured for 18 and 48 hours, respectively, at 28° C. in YGP medium [yeast extract(0.2%), glucose(1.5%), peptone(0.5%), K2 HPO4 (0.05%) and MgSO4 (0.05%)] and suspended in saline. Aspergillus fumigatus was cultured for 7 days at 28° C. on YGP agar slant and suspended in saline. Spores were collected by filtering fungal suspension through gauze. Male ICR mice weighing 20 to 24 g were infected intravenously with about 10 times the median lethal dose of the fungi.
(§3) Test compounds were administered at various doses to groups of 5 mice each intravenously either once just after fungal challenge (day 0) or once daily for 5 days from day 0 to day 4 (qd×5). The 50% protective dose (PD50) was calculated from survival rates recorded on the 20th day after fungal challenge. All control animals died within 7 to 15 days after fungal infection.

[16] = test system: calcium ion and calmodulin-dependent cyclic nucleotide phosphodiesterase; details: background statement; cited from earlier work
[17] = test system: A. fumigatus IAM2034; experiment: In vivo antifungal activity, intravenous infection in mice; set-up: species or system Male ICR mice; details: Aspergillus fumigatus, 480 h, survival on 20th day, read-out: PD50 (50% protective dose)
Protocol: as §2, §3

[18] = test system: C. neoformans IAM4514; experiment: as above; set-up: species or system Male ICR mice; details: Cryptococcus neoformans, 480 h, survival on 20th day, read-out: PD50 (50% protective dose)
Protocol: as §2, §3

[19] = test system: mice; experiment: Acute toxicity (LD50) in mice, single intravenous dose; format: in vivo; details: at 600 mg/kg, the highest dose tested
Protocol: The LD50 for N,N-dimethyl BU-3608 FA-2 was determined in mice after a single intravenous dose.

[20] = single dose just after challenge

Row | SMILES | MIC [1] [µg/mL] | MIC [2] [µg/mL] | MIC [3] [µg/mL] | MIC [4] [µg/mL] | MIC [5] [µg/mL] | MIC [6] [µg/mL] | MIC [7] [µg/mL] | MIC [8] [µg/mL] | MIC [9] [µg/mL] | MIC [10] [µg/mL] | MIC [11] [µg/mL] | MIC [12] [µg/mL] | MIC [13] [µg/mL] | MIC [14] [µg/mL] | ED50 [15, 20] [mg/kg] | other results
1 | CN[C@@H]1[C@H](O[C@@H]2OC[C@@H](O)[C@H](O)[C@H]2O)[C@@H](O)[C@H](O[C@H]2c3cc(C)c(C(=O)N[C@H](CO)C(=O)O)c(O)c3-c3c(cc4c(c3O)C(=O)c3cc(OC)cc(O)c3C4=O)[C@@H]2O)O[C@@H]1C [BU-3608 FA-1] | 6.3 (≈ 7.35 µM) | 6.3 (≈ 7.35 µM) | 3.1 (≈ 3.62 µM) | 3.1 (≈ 3.62 µM) | 12.5 (≈ 14.6 µM) | 0.8 (≈ 0.934 µM) | 6.3 (≈ 7.35 µM) | 0.8 (≈ 0.934 µM) | 6.3 (≈ 7.35 µM) | > 100 | 12.5 (≈ 14.6 µM) | 1.6 (≈ 1.87 µM) | 6.3 (≈ 7.35 µM) | 6.3 (≈ 7.35 µM) | 18 | 
2 | COc1cc(O)c2c(c1)C(=O)c1c(cc3c(c1O)-c1c(cc(C)c(C(=O)N[C@H](CO)C(=O)O)c1O)[C@H](O[C@@H]1O[C@H](C)[C@H](N)[C@H](O[C@@H]4OC[C@@H](O)[C@H](O)[C@H]4O)[C@H]1O)[C@H]3O)C2=O [BU-3608 FA-2] | 6.3 (≈ 7.48 µM) | 6.3 (≈ 7.48 µM) | 3.1 (≈ 3.68 µM) | 3.1 (≈ 3.68 µM) | 6.3 (≈ 7.48 µM) | 0.8 (≈ 0.949 µM) | 6.3 (≈ 7.48 µM) | 0.8 (≈ 0.949 µM) | 6.3 (≈ 7.48 µM) | > 100 | 25 (≈ 29.7 µM) | 1.6 (≈ 1.9 µM) | 6.3 (≈ 7.48 µM) | 6.3 (≈ 7.48 µM) | 7.4 | 
3 | CN[C@@H]1[C@H](O)[C@@H](O)[C@H](O[C@H]2c3cc(C)c(C(=O)N[C@H](CO)C(=O)O)c(O)c3-c3c(cc4c(c3O)C(=O)c3cc(OC)cc(O)c3C4=O)[C@@H]2O)O[C@@H]1C [Des-xylosyl BU-3608 FA-1] | 50 (≈ 69 µM) | 6.3 (≈ 8.69 µM) | 6.3 (≈ 8.69 µM) | 6.3 (≈ 8.69 µM) | 3.1 (≈ 4.28 µM) | 1.6 (≈ 2.21 µM) | 3.1 (≈ 4.28 µM) | 1.6 (≈ 2.21 µM) | > 100 | 12.5 (≈ 17.2 µM) | > 100 | 6.3 (≈ 8.69 µM) | 12.5 (≈ 17.2 µM) | 12.5 (≈ 17.2 µM) |  | 
4 | COc1cc(O)c2c(c1)C(=O)c1c(cc3c(c1O)-c1c(cc(C)c(C(=O)N[C@H](CO)C(=O)O)c1O)[C@H](O[C@@H]1O[C@H](C)[C@H](N)[C@H](O)[C@H]1O)[C@H]3O)C2=O [Des-xylosyl BU-3608 FA-2] | 50 (≈ 70.4 µM) | 12.5 (≈ 17.6 µM) | 12.5 (≈ 17.6 µM) | 6.3 (≈ 8.87 µM) | 3.1 (≈ 4.36 µM) | 3.1 (≈ 4.36 µM) | 3.1 (≈ 4.36 µM) | 3.1 (≈ 4.36 µM) | > 100 | 25 (≈ 35.2 µM) | > 100 | 6.3 (≈ 8.87 µM) | 12.5 (≈ 17.6 µM) | 12.5 (≈ 17.6 µM) |  | 
5 | COc1cc(O)c2c(c1)C(=O)c1c(cc3c(c1O)-c1c(cc(C)c(C(=O)N[C@H](CO)C(=O)O)c1O)[C@H](O[C@@H]1O[C@H](C)[C@H](N(C)C)[C@H](O)[C@H]1O)[C@H]3O)C2=O [Des-xylosyl N,N-dimethyl BU-3608 FA-2] | 12.5 (≈ 16.9 µM) | 6.3 (≈ 8.53 µM) | 6.3 (≈ 8.53 µM) | 3.1 (≈ 4.2 µM) | 6.3 (≈ 8.53 µM) | 1.6 (≈ 2.17 µM) | 6.3 (≈ 8.53 µM) | 1.6 (≈ 2.17 µM) | 50 (≈ 67.7 µM) | 25 (≈ 33.8 µM) | 100 (≈ 135 µM) | 3.1 (≈ 4.2 µM) | 6.3 (≈ 8.53 µM) | 6.3 (≈ 8.53 µM) |  | 
6 | CC(=O)Cc1cc2c(c(O)c1C(=O)O)-c1cc3c(c(O)c1CC2)C(=O)c1c(O)cc(O)cc1C3=O [KS-619-1] |  |  |  |  |  |  |  |  |  |  |  |  |  |  |  | inhibitor of calcium ion and calmodulin-dependent cyclic nucleotide phosphodiesterase [16]: inhibitor of calcium ion and calmodulin-dependentcyclic nucleotide phosphodiesterase
7 | COc1cc(O)c2c(c1)C(=O)c1c(cc3c(c1O)-c1c(cc(C)c(C(=O)N[C@H](CO)C(=O)O)c1O)[C@H](O[C@@H]1O[C@H](C)[C@H](N(C)C)[C@H](O[C@@H]4OC[C@@H](O)[C@H](O)[C@H]4O)[C@H]1O)[C@H]3O)C2=O [N,N-dimethyl BU-3608 FA-2] | 25 (≈ 28.7 µM) | 3.1 (≈ 3.56 µM) | 3.1 (≈ 3.56 µM) | 6.3 (≈ 7.23 µM) | 6.3 (≈ 7.23 µM) | 0.8 (≈ 0.919 µM) | 3.1 (≈ 3.56 µM) | 0.8 (≈ 0.919 µM) | 25 (≈ 28.7 µM) |  |  | 1.6 (≈ 1.84 µM) | 6.3 (≈ 7.23 µM) | 12.5 (≈ 14.4 µM) | 9 | ED50 ([17]; qd × 5 (day 0 to day 4)): 15 mg/kg; ED50 [17, 20]: 36 mg/kg; ED50 ([15]; qd × 5 (day 0 to day 4)): 7.5 mg/kg; ED50 ([18]; qd × 5 (day 0 to day 4)): 2.8 mg/kg; ED50 [18, 20]: 11 mg/kg; LD50 determination: lethal toxicity and toxic signs [19]: neither lethal toxicity nor any significant toxic sign was observed
